In series [1] the test system is parental HEK cells. Kind of series: HEK parental Agonist Counterscreen Assay (non-transfected cells). Type of series: cell-based. The settings on record: for Averaged Max % Response (±St. Dev.): activity relative to known control. The text has this:
The high control for the agonist counterscreen was Forskolin not acetylcholine.

Series [2] concerns the target T1, GPR139 (Homo sapiens, UniProt Q6DWJ6).
T1 sequence (Q6DWJ6 1-353): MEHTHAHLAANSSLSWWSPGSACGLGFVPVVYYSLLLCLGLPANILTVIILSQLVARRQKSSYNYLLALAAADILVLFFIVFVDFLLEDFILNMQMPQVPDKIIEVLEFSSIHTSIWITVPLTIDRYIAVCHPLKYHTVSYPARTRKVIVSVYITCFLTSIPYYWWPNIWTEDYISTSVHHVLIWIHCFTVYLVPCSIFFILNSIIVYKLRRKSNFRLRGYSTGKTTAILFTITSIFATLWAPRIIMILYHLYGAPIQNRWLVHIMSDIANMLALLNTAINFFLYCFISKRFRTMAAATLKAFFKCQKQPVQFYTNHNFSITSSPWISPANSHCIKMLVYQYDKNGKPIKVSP
Kind of series: GPR139 Agonist titration / agonist counterscreen assay (calcium detection, HEK-GPR139 cells). Type of series: cell-based. Also on record: expressed in transfected cells; host or cells: HEK Aequorin cells, Maxcyte transient transfection. As to conditions: GPR139 Agonist Activity; for EC50: read-out: EC50; for Averaged Max % Response (±St. Dev.): activity relative to known control. The protocol: GPR activity was assessed using a calcium detection assay. […] Negative control samples were treated with DMSO. […] Intracellular calcium was measured using Calcium 5.
On the technique in general: A counterscreen serves to expose hits that act by an unwanted route or on another target.

Setting [3] is: Homo sapiens, HEK293, HEK Agonist Activity section of Table 4 (parental HEK counterscreen).
Setting [4] is: HEK Agonist Activity section of Table 4 (parental HEK counterscreen).
Where [5] appears, read: values printed in E-notation without unit.
The mark [6] stands for this setting: Homo sapiens, HEK293, HEK Agonist Activity, parental non-transfected HEK cells.

Here are results for twelve compounds from US20250099420A1, “SMALL MOLECULE MODULATORS OF GPR139 COMPLEX” (University of Florida Research Foundation, Incorporated, priority 2022, published 2025).

Molecules are shown by their SMILES. Like-named read-outs stand apart in the source and are kept apart here.

As usually defined, the EC50 is the concentration giving half of the maximal effect. `O=C(Cn1ncc2c1-c1ccccc1OC2)Nc1ccc(Cl)cc1` [SR-01000152099]: in series [1] (HEK Agonist Activity section), the “Lipophilic Efficiency (logD)” value came to 2.23, the “Lipophilic Efficiency (logP)” value came out at 2.23 and the “Averaged Max % Response (±St. Dev.)” value is recorded as 29.06 ± 12.18%. Further, the concentration giving a half-maximal response (EC50) in series [1] (setting [3]) is above 14100 nM. Also, in series [2], the “Efficiency Ligand” value is 0.36, the “Hill Slope” value worked out at 0.62, the “Lipophilic Efficiency (logD)” value is 3.61 and the “Lipophilic Efficiency (logP)” value came out at 3.61. For the same compound, in series [2], the “Averaged Max % Response (±St. Dev.)” value was 112.22 ± 29.96%. Also, the EC50 in series [2] (HEK-GPR139 cells) is 589 nM.
As to `Cc1cccnc1NC(=O)Cn1ncc2c1-c1ccccc1OC2` [SR-01000152365], the “Lipophilic Efficiency (logD)” value in series [1] (HEK Agonist Activity section) was determined as 2.49; in series [2] (based on logD), 4.77. For the same compound, the results for the “Lipophilic Efficiency (logP)” value in series [1] (HEK Agonist Activity section) and in series [2] (based on logP) were 2.49 and 4.77, respectively. Besides, the 50% effective concentration (EC50) was above 14100 nM in series [1] (setting [4]) and 73 nM in series [2] (setting [5]). Further, the “Averaged Max % Response (±St. Dev.)” value in series [1] (HEK Agonist Activity section) turned out to be 18.44 ± 8.07%; in series [2], 96.01 ± 17.34%. Besides, the “Hill Slope” value in series [2] (fitted dose-response curve) worked out at 0.99. In addition, the “Efficiency Ligand” value in series [2] (ligand efficiency) amounted to 0.42.
With `Cc1ccc2c(c1)-c1c(cnn1CC(=O)Nc1ccccn1)CO2` [SR-01000152429], the “Lipophilic Efficiency (logD)” value in series [1] (HEK Agonist Activity section) worked out at 2.49; in series [2] (based on logD), 4.53. Besides, the “Lipophilic Efficiency (logP)” value in series [1] (HEK Agonist Activity section) is reported as 2.49; in series [2] (based on logP), 4.53. For the same compound, the EC50 in series [1] (setting [4]) is above 14100 nM; in series [2] (setting [5]) it was 128 nM. Moreover, the figures for the “Averaged Max % Response (±St. Dev.)” value in series [1] (HEK Agonist Activity section) and in series [2] were −0.18 ± 21.55% and 109.51 ± 16.91%, respectively. For the same compound, in series [2] (fitted dose-response curve), the “Hill Slope” value is listed as 1.07. For the same compound, the “Efficiency Ligand” value in series [2] (ligand efficiency) is recorded as 0.40.
With `CC(NC(=O)Cn1ncc2ccccc21)c1ccc2c(c1)OCCO2` (stereo not drawn) [SR-01000152760], the “Lipophilic Efficiency (logD)” value worked out at 2.88 in series [1] (HEK Agonist Activity section) and 4.79 in series [2] (based on logD). In addition, the “Lipophilic Efficiency (logP)” value in series [1] (HEK Agonist Activity section) is recorded as 2.88; in series [2] (based on logP), 4.79. For the same compound, the EC50 in series [1] (setting [4]) is above 14100 nM; in series [2] (setting [5]) it was 174 nM. Also, the “Averaged Max % Response (±St. Dev.)” value in series [1] (HEK Agonist Activity section) came out at 0.48 ± 8.40%; in series [2], 85.23 ± 10.03%. Also, the “Hill Slope” value in series [2] (fitted dose-response curve) is given as 0.63. Moreover, the “Efficiency Ligand” value in series [2] (ligand efficiency) stood at 0.38.
Consider `Cc1cc(=O)n2nc(NCc3ccccc3Cl)nc2[nH]1` [SR-01000153886], for which, in series [1] (HEK Agonist Activity section), the “Lipophilic Efficiency (logD)” value is 2.16, the “Lipophilic Efficiency (logP)” value was 2.16 and the “Averaged Max % Response (±St. Dev.)” value was −3.87 ± 9.73%. Also, in series [1] (setting [3]), the EC50 was above 14100 nM. Also, in series [2], the “Efficiency Ligand” value was determined as 0.41, the “Hill Slope” value amounted to 2.51, the “Lipophilic Efficiency (logD)” value is 3.22 and the “Lipophilic Efficiency (logP)” value stood at 3.22. In series [2], the “Averaged Max % Response (±St. Dev.)” value was determined as 90.96 ± 29.33%. In series [2] (HEK-GPR139 cells), the EC50 was 1200 nM.
For the compound `O=c1c2c([nH]c3nc(NCc4ccccc4Cl)nn13)CCC2` [SR-01000153956], in series [1] (HEK Agonist Activity section), the “Lipophilic Efficiency (logD)” value was determined as 1.70, the “Lipophilic Efficiency (logP)” value amounted to 1.70 and the “Averaged Max % Response (±St. Dev.)” value was determined as 21.15 ± 4.99%. In addition, in series [1] (setting [3]), the concentration giving a half-maximal response (EC50) was above 14100 nM. In series [2], the “Efficiency Ligand” value came to 0.38, the “Hill Slope” value was determined as 1.89, the “Lipophilic Efficiency (logD)” value is given as 2.80 and the “Lipophilic Efficiency (logP)” value turned out to be 2.80. The “Averaged Max % Response (±St. Dev.)” value in series [2] stood at 93.85 ± 32.13%. Besides, in series [2] (HEK-GPR139 cells), the concentration for a half-maximal effect (EC50) was found to be 1100 nM.
`Cc1cc(C)c2c(cnn2CC(=O)N2CCc3ccccc3C2)c1` [SR-01000154995]: in series [1] (HEK Agonist Activity section), the “Lipophilic Efficiency (logD)” value came out at 1.52, the “Lipophilic Efficiency (logP)” value turned out to be 1.52 and the “Averaged Max % Response (±St. Dev.)” value is listed as 41.69 ± 44.54%. In series [1] (setting [4]), the 50% effective concentration (EC50) was above 14100 nM. Moreover, in series [2], the “Efficiency Ligand” value turned out to be 0.36, the “Hill Slope” value is 1.08, the “Lipophilic Efficiency (logD)” value is reported as 2.91 and the “Lipophilic Efficiency (logP)” value is reported as 2.91. Also, the “Averaged Max % Response (±St. Dev.)” value in series [2] is reported as 88.51 ± 8.87%. For the same compound, the EC50 in series [2] (HEK-GPR139 cells) worked out at 572 nM.
Turning to `O=C(Cn1ncc2c(Cl)cccc21)NCCc1ccc(Cl)cc1` [SR-01000155030], the “Lipophilic Efficiency (logD)” value is given as 1.32 in series [1] (HEK Agonist Activity section) and 3.06 in series [2] (based on logD). Moreover, the “Lipophilic Efficiency (logP)” value is recorded as 1.32 in series [1] (HEK Agonist Activity section) and 3.06 in series [2] (based on logP). Further, the “Averaged Max % Response (±St. Dev.)” value in series [1] (HEK Agonist Activity section) worked out at 10.75 ± 8.11%; in series [2] it was 113.63 ± 16.89%. Moreover, the EC50 in series [1] (setting [3]) was above 14100 nM; in series [2] (setting [5]), 252 nM. In series [2] (fitted dose-response curve), the “Hill Slope” value came out at 0.65. Moreover, the “Efficiency Ligand” value in series [2] (ligand efficiency) is reported as 0.40.
As for `CC(NC(=O)Cn1ncc2c(Cl)cccc21)c1ccc2c(c1)OCCO2` (stereo not drawn) [SR-01000155068], the “Lipophilic Efficiency (logD)” value in series [1] (HEK Agonist Activity) worked out at 2.28; in series [2] (based on logD) it was 5.00. The “Lipophilic Efficiency (logP)” value in series [1] (HEK Agonist Activity) was determined as 2.28; in series [2] (based on logP), 5.00. Further, the “Averaged Max % Response (±St. Dev.)” value in series [1] (HEK Agonist Activity) is −2.13 ± 1.88%; in series [2], 127.51 ± 13.72%. Besides, the EC50 in series [1] (setting [6]) is above 14100 nM; in series [2] (setting [5]) it was 26.7 nM. The “Hill Slope” value in series [2] (fitted dose-response curve) is on record as 0.58. Moreover, the “Efficiency Ligand” value in series [2] (ligand efficiency) is listed as 0.41.
`CC1CCC(NC(=O)CCC(=O)N2CCSc3ccccc32)CC1` (stereo not drawn) [SR-01000159110]: the “Lipophilic Efficiency (logD)” value was 2.25 in series [1] (HEK Agonist Activity) and 5.19 in series [2] (based on logD). The “Lipophilic Efficiency (logP)” value in series [1] (HEK Agonist Activity) is listed as 2.25; in series [2] (based on logP), 5.19. The “Averaged Max % Response (±St. Dev.)” value is on record as 3.44 ± 10.60% in series [1] (HEK Agonist Activity) and 95.57 ± 19.71% in series [2]. Moreover, the concentration for a half-maximal effect (EC50) in series [1] (setting [6]) is above 14100 nM; in series [2] (setting [5]), 16.1 nM. Further, the “Hill Slope” value in series [2] (fitted dose-response curve) is recorded as 1.18. Moreover, the “Efficiency Ligand” value in series [2] (ligand efficiency) turned out to be 0.45.
`CC(C)CCNC(=O)CN1CCN(Cc2ccc(F)cc2Cl)C1=O` [SR-01000161248]: in series [1] (HEK Agonist Activity section), the “Lipophilic Efficiency (logD)” value was 2.51, the “Lipophilic Efficiency (logP)” value was 2.51 and the “Averaged Max % Response (±St. Dev.)” value was −6.23 ± 14.84%. In addition, the EC50 in series [1] (setting [4]) is above 14100 nM. For the same compound, in series [2], the “Efficiency Ligand” value came out at 0.38, the “Hill Slope” value was determined as 1.12, the “Lipophilic Efficiency (logD)” value was 4.17 and the “Lipophilic Efficiency (logP)” value was determined as 4.17. Besides, the “Averaged Max % Response (±St. Dev.)” value in series [2] was determined as 106.33 ± 15.91%. Also, the EC50 in series [2] (HEK-GPR139 cells) was 309 nM.
Take `Cc1ccccc1-c1nnc(CN2CCc3ccccc3C2)o1` [SR-01000162178]: in series [1] (HEK Agonist Activity section), the “Lipophilic Efficiency (logD)” value stood at 1.73, the “Lipophilic Efficiency (logP)” value is 1.58 and the “Averaged Max % Response (±St. Dev.)” value is 25.44 ± 6.84%. For the same compound, in series [1] (setting [3]), the EC50 was above 14100 nM. In series [2], the “Efficiency Ligand” value is on record as 0.40, the “Hill Slope” value worked out at 1.13, the “Lipophilic Efficiency (logD)” value stood at 3.44 and the “Lipophilic Efficiency (logP)” value was found to be 3.29. In addition, the “Averaged Max % Response (±St. Dev.)” value in series [2] amounted to 112.85 ± 32.26%. The 50% effective concentration (EC50) in series [2] (HEK-GPR139 cells) came out at 272 nM.
